{"source": "PubChem BioAssay (NCI)", "experiment_in_all_cases": "growth of human tumour cells (NCI), 48 h", "key": {"[1]": {"system": "ACHN renal"}, "[2]": {"system": "HT29 colon"}, "[3]": {"system": "SK-MEL-5 melanoma"}, "[4]": {"system": "NCI-H23 lung"}, "[5]": {"system": "SK-OV-3 ovarian"}, "[6]": {"system": "UO-31 renal"}, "[7]": {"system": "HCT-116 colon"}, "[8]": {"system": "SNB-75 CNS"}, "[9]": {"system": "MOLT-4 leukemia"}, "[10]": {"system": "K-562 leukemia"}, "[11]": {"system": "NCI-H522 lung"}, "[12]": {"system": "NCI-H226 lung"}, "[13]": {"system": "HCT-15 colon"}, "[14]": {"system": "OVCAR-8 ovarian"}, "[15]": {"system": "HOP-62 NSCLC"}, "[16]": {"system": "MDA-MB-435"}, "[17]": {"system": "HL-60(TB) leukemia"}, "[18]": {"system": "OVCAR-5 ovarian"}, "[19]": {"system": "DU-145 prostate"}, "[20]": {"system": "SF-268 CNS"}, "[21]": {"system": "TK-10 renal"}, "[22]": {"system": "LOX IMVI melanoma"}, "[23]": {"system": "NCI-H460 lung"}, "[24]": {"system": "HCC-2998 colon"}, "[25]": {"system": "U251 CNS"}, "[26]": {"system": "OVCAR-4 ovarian"}, "[27]": {"system": "MALME-3M melanoma"}, "[28]": {"system": "SK-MEL-28 melanoma"}}, "note": "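Results reflect a 48-hour exposure of cells in 96-well plates to compound at five concentrations. GI50 marks 50% less growth. TGI: concentration producing complete growth inhibition.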"}
{"compound": "CN1CCN(c2c(F)cc(NC3=C(Cl)C(=O)c4ncccc4C3=O)cc2F)CC1", "values": [{"measurement": "GI50", "setting": "[1]", "value": 1.61, "unit": "µM"}, {"measurement": "TGI", "setting": "[1]", "value": 2.96, "unit": "µM"}, {"measurement": "GI50", "setting": "[2]", "value": 4.67, "unit": "µM"}, {"measurement": "TGI", "setting": "[2]", "value": 22.5, "unit": "µM"}, {"measurement": "GI50", "setting": "[3]", "value": 15.2, "unit": "µM"}, {"measurement": "TGI", "setting": "[3]", "value": 28.8, "unit": "µM"}, {"measurement": "GI50", "setting": "[4]", "value": 11.8, "unit": "µM"}, {"measurement": "TGI", "setting": "[4]", "value": 32, "unit": "µM"}, {"measurement": "GI50", "setting": "[5]", "value": 25.2, "unit": "µM"}, {"measurement": "TGI", "setting": "[5]", "value": 72, "unit": "µM"}, {"measurement": "GI50", "setting": "[6]", "value": 1.52, "unit": "µM"}, {"measurement": "TGI", "setting": "[6]", "value": 2.95, "unit": "µM"}, {"measurement": "GI50", "setting": "[7]", "value": 1.78, "unit": "µM"}, {"measurement": "TGI", "setting": "[7]", "value": 3.35, "unit": "µM"}, {"measurement": "GI50", "setting": "[8]", "value": 10.9, "unit": "µM"}, {"measurement": "TGI", "setting": "[8]", "value": 23.9, "unit": "µM"}, {"measurement": "GI50", "setting": "[9]", "value": 1.79, "unit": "µM"}, {"measurement": "TGI", "setting": "[9]", "value": 6.71, "unit": "µM"}, {"measurement": "GI50", "setting": "[10]", "value": 0.494, "unit": "µM"}, {"measurement": "TGI", "setting": "[10]", "value": "> 100", "unit": "µM"}, {"measurement": "GI50", "setting": "[11]", "value": 1.43, "unit": "µM"}, {"measurement": "TGI", "setting": "[11]", "value": 3.82, "unit": "µM"}, {"measurement": "GI50", "setting": "[12]", "value": 22.2, "unit": "µM"}, {"measurement": "TGI", "setting": "[12]", "value": 55.9, "unit": "µM"}, {"measurement": "GI50", "setting": "[13]", "value": 1.82, "unit": "µM"}, {"measurement": "TGI", "setting": "[13]", "value": 4.09, "unit": "µM"}, {"measurement": "GI50", "setting": "[14]", "value": 8.82, "unit": "µM"}, {"measurement": "TGI", "setting": "[14]", "value": "> 100", "unit": "µM"}, {"measurement": "GI50", "setting": "[15]", "value": 19.2, "unit": "µM"}, {"measurement": "TGI", "setting": "[15]", "value": 42.9, "unit": "µM"}, {"measurement": "GI50", "setting": "[16]", "value": 1.84, "unit": "µM"}, {"measurement": "TGI", "setting": "[16]", "value": 3.62, "unit": "µM"}, {"measurement": "GI50", "setting": "[17]", "value": 1.33, "unit": "µM"}, {"measurement": "TGI", "setting": "[17]", "value": 4.99, "unit": "µM"}, {"measurement": "GI50", "setting": "[18]", "value": 14.8, "unit": "µM"}, {"measurement": "TGI", "setting": "[18]", "value": 28, "unit": "µM"}, {"measurement": "GI50", "setting": "[19]", "value": 12.7, "unit": "µM"}, {"measurement": "TGI", "setting": "[19]", "value": 26.2, "unit": "µM"}, {"measurement": "GI50", "setting": "[20]", "value": 14.1, "unit": "µM"}, {"measurement": "TGI", "setting": "[20]", "value": 28.3, "unit": "µM"}, {"measurement": "GI50", "setting": "[21]", "value": 1.93, "unit": "µM"}, {"measurement": "TGI", "setting": "[21]", "value": 3.67, "unit": "µM"}, {"measurement": "GI50", "setting": "[22]", "value": 2.15, "unit": "µM"}, {"measurement": "TGI", "setting": "[22]", "value": 5.17, "unit": "µM"}, {"measurement": "GI50", "setting": "[23]", "value": 18.1, "unit": "µM"}, {"measurement": "TGI", "setting": "[23]", "value": 36, "unit": "µM"}, {"measurement": "GI50", "setting": "[24]", "value": 11.5, "unit": "µM"}, {"measurement": "TGI", "setting": "[24]", "value": 26.1, "unit": "µM"}, {"measurement": "GI50", "setting": "[25]", "value": 15, "unit": "µM"}, {"measurement": "TGI", "setting": "[25]", "value": 31.7, "unit": "µM"}, {"measurement": "GI50", "setting": "[26]", "value": 1.33, "unit": "µM"}, {"measurement": "TGI", "setting": "[26]", "value": 2.66, "unit": "µM"}, {"measurement": "GI50", "setting": "[27]", "value": 1.59, "unit": "µM"}, {"measurement": "TGI", "setting": "[27]", "value": 2.97, "unit": "µM"}, {"measurement": "GI50", "setting": "[28]", "value": 6.47, "unit": "µM"}, {"measurement": "TGI", "setting": "[28]", "value": 19, "unit": "µM"}]}
